Assay results as given in patent publication US12559504B2, “Benzotriazole derivative” (UBE CORPORATION, priority 2019, dated 2026).

What was measured:
[1] = target: T1, GST fusion human Keap1 (amino acid residue: 325-624) protein (Homo sapiens, UniProt Q14145); assay: Keap1-Nrf2 binding inhibition test (fluorescence polarization); details: compound concentration of 100 nM; read-out: inhibition rate
T1 construct: GST fusion human Keap1 (amino acid residue: 325-624) protein; purchased Protein tech Ag0779
T1 sequence (Q14145 325-624): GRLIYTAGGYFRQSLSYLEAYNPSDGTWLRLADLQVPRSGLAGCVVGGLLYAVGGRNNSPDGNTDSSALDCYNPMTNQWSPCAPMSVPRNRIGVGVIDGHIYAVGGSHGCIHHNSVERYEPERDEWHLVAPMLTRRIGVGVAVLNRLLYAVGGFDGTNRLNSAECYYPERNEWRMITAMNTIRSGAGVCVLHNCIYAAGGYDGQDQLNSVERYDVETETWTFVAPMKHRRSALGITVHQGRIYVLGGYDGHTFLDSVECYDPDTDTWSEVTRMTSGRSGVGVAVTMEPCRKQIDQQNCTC
Protocol: The inhibitory activity of each test compound on the binding between Nrf2 and Keap1 was measured by the fluorescence polarization method. A solution consisting of 20 mM tris-hydrochloride pH7.5 (NIPPON GENE CO., LTD., REF: 318-90225), 150 mM NaCl [FUJIFILM Wako Pure Chemical. Corporation, REF: 191-01665], 0.05% Tween 20 (BioRAD, REF: 161-0781), and 5 mM DTT (FUJIFILM Wako Pure Chemical Corporation, REF: 049-08972) was used as a buffer solution. To a test compound solution (70 μL) adjusted to each concentration with 10% DMSO (FUJIFILM Wako Pure Chemical Corporation, REF: 043-07216) was added a buffer solution (350 μL) comprising 6 nM FITC-labeled Nrf2 peptide (FITC-Ahx-LDEETGEFL-NH2, Invitrogen) and 0.2 mg/mL of BSA (FUJIFILM Wako Pure Chemical Corporation, REF: 017-22231). Each 120 μL of the resulting mixture was dispensed into a black 96 well plate, and a buffer solution (80 μL) comprising 2.5 nM GST fusion human Keap1 (amino acid residue: 325-624) protein (Protein tech, REF: Ag0779) was added thereto. A Keap1-free buffer solution was added to some wells to prepare negative controls. Meanwhile, compound-free wells were used as positive controls. The plate was incubated at room temperature for 30 minutes, and each fluorescence polarization at excitation wavelength of 482 nm and fluorescence wavelength of 530 nm was measured by using a plate reader Clariostar (BMG Labtech). The fluorescence polarization of the negative control was set to be 100% inhibition, fluorescence polarization of the positive control was set to be 0% inhibition, and the inhibition rate of each test compound at 100 nM was calculated by using the following equation. Inhibition rate (%)=100−((Fluorescence polarization when test compound was added−Fluorescence polarization of negative control)/(Fluorescence polarization of positive control−Fluorescence polarization of negative control))×100

[2] = Metabolism test using human liver microsome fractions; assay type: in vitro ADME; details: human liver microsomes, test compound 10 μmol/L, NADPH and UDP-glucuronic acid, 37° C.
Protocol: A reaction composition solution (comprising NADPH Regenerating System, Solution A (manufactured by Corning Inc., REF. 451220) (50 μL), NADPH Regenerating System, Solution B (manufactured by Corning Inc., REF. 451200) (10 μL), 250 mM UDP-glucuronic acid (40 μL), UGT Reaction Mix Solution B (manufactured by Corning Inc., REF. 451320) (200 μL), and distilled water (640 μL)) in which human liver microsomes (manufactured by Xenotech, Cat. No. H610) or monkey liver microsomes (manufactured by Xenotech, Cat. No. P2000) (corresponding to 1 mg of protein) were suspended was prepared. After the solution was incubated at 37° C. for 5 minutes, each test compound dissolved into DMSO (manufactured by FUJIFILM Wako Pure Chemical Corporation, Code No. 043-07216) was added to the solution so that the final concentration was set to be 10 μmol/L, and a reaction was initiated. After 0, 5, 10, 15, 20, and 30 minute(s) from the initiation of the metabolism reaction, 100 μL of the reaction solution was taken out of the reaction system, and added to 200 μL of acetonitrile to stop the reaction. After the reaction was completed, the reaction solution was subjected to a work-up such as deproteinization, and then subjected to an UV-HPLC analysis to carry out the following analysis.
The peak area of each test compound was calculated by LabSolution software (Shimadzu Corporation), and the residual ratio (%) at each culture time of test material was calculated by the following equation. Residual ratio (%)=Peak area at each culture time[…]Peak area at 0 (initial time)
Next, the residual amount (nmol/mg/mL) at each culture time of test material was calculated by the following equation. Residual amount (nmol/mg/mL)=Initial concentration of reaction solution (10 nmol/mg/mL)×residual ratio÷100
Finally, a graph in which the reaction time was plotted at horizontal axis and the residual amount was plotted at longitudinal axis was prepared on Excel, and the inclination was calculated as the elimination rate (pmol/min/mg-P) within the time range in which the graph was deemed linear.

NQO1 = NQO1 expression induction test in mouse kidney (single administration); assay type: in vivo; details: BALB/c mouse kidney, 6 hours after administration, ratio to control group; for fold induction at 10 mg/kg: Mus musculus, po, 6 h
Protocol: Each test compound solution for administration was prepared by dissolving or suspending each test compound into a 0.5 w/v % aqueous solution of methylcellulose (0.5% MC) (manufactured by Wako Pure Chemical Industries, Ltd.).
Each prepared test compound was orally administered to a BALB/c mouse (female, provided by Charles River Laboratories Japan, Inc.). Non-treated group was used as a control group. After 6 hours from the administration, each mouse was anesthetized with isoflurane, and euthanized with bloodletting by incising a lower aorta. Immediately, the left kidney was excised, cut into small pieces, and then the cut kidney pieces were transferred to RNA later (Thermo Fisher Scientific).
Then, mRNA was extracted from the collected kidney pieces by using NucleoSpin (registered trademark) RNA Kit (Takara Bio Inc.), each concentration was quantified by FlexStation3 (Molecular Devices), and then the concentration was adjusted to a constant concentration. A reverse transcription synthesis of cDNA was carried out from the mRNA with the constant concentration by using PrimeScript™ RT reagent Kit with gDNA Eraser and PCR Thermal Cycler (Takara Bio Inc.). Then, in addition to the resulting cDNA, SYBR (registered trademark) Premix Ex Taq™ II and NQO1, GAPDH primer (Takara Bio Inc.) were used to carry out Real-time PCR by PCR Thermal Cycler Dice Real time (Takara Bio Inc.), and the NQO1 expression was quantified by using the GAPDH expression as the reference.
In order to evaluate the NQO1 expression induction in each group, the NQO1 expression induction ratio was calculated by using the following equation. (NQO1 expression induction ratio)=(Average NQO1 expression in test compound administered group)[…](Average NQO1 expression in control group)

CC[C@@H]1CN(Cc2cc(C(c3ccc4c(nnn4C)c3C)C(C)(C)C(=O)O)ccc2C)Cc2cc3c(cc2O1)OC(F)(F)O3 (single isomer, unassigned) [Example 29]
inhibition at 0.1 µM [1]: ≥ 50%
Human metabolic rate [2]: A (metabolic rate<100 pmol/min/mg protein)
fold induction at 10 mg/kg (NQO1): > 6

CC[C@@H]1CN(Cc2cc(C(c3ccc4c(nnn4C)c3C)C(C)(C)C(=O)O)ccc2C)Cc2cc3c(cc2O1)OC(F)(F)O3 (single isomer, unassigned) [Example 30]
Human metabolic rate [2]: E (metabolic rate≥250 pmol/min/mg protein)

CC[C@@H]1CN(Cc2cc(C(c3ccc4c(nnn4C)c3C)C(C)(C)C(=O)O)ccc2C)Cc2cc3c(cc2O1)CCC3 (single isomer, unassigned) [Example 31]
inhibition at 0.1 µM [1]: ≥ 50%
Human metabolic rate [2]: B (100≤metabolic rate<150 pmol/min/mg protein)
fold induction at 10 mg/kg (NQO1): 3 to 6

CC[C@@H]1CN(Cc2cc(C(c3ccc4c(nnn4C)c3C)C(C)(C)C(=O)O)ccc2C)Cc2cc3c(cc2O1)CCC3 (single isomer, unassigned) [Example 32]
Human metabolic rate [2]: D (200≤metabolic rate<250 pmol/min/me protein)

CC[C@@H]1CN(Cc2cc(C(c3ccc4c(nnn4C)c3C)C(C)(C)C(=O)O)ccc2C)Cc2cc3c(cc2O1)CCCC3 (single isomer, unassigned) [Example 33]
inhibition at 0.1 µM [1]: ≥ 50%
Human metabolic rate [2]: A (metabolic rate<100 pmol/min/mg protein)
fold induction at 10 mg/kg (NQO1): 3 to 6

CC[C@@H]1CN(Cc2cc(C(c3ccc4c(nnn4C)c3C)C(C)(C)C(=O)O)ccc2C)Cc2cc3c(cc2O1)CCCC3 (single isomer, unassigned) [Example 34]
Human metabolic rate [2]: C (150≤metabolic rate<200 pmol/min/mg protein)

CC[C@@H]1CN(Cc2cc(C(c3ccc4c(nnn4C)c3C)C(C)(C)C(=O)O)ccc2C)Cc2ccc3c(c2O1)CCC3 (single isomer, unassigned) [Example 35]
inhibition at 0.1 µM [1]: ≥ 50%
Human metabolic rate [2]: B (100≤metabolic rate<150 pmol/min/mg protein)
fold induction at 10 mg/kg (NQO1): > 6

CC[C@@H]1CN(Cc2cc(C(c3ccc4c(nnn4C)c3C)C(C)(C)C(=O)O)ccc2C)Cc2ccc3c(c2O1)CCC3 (single isomer, unassigned) [Example 36]
Human metabolic rate [2]: C (150≤metabolic rate<200 pmol/min/mg protein)

CC[C@@H]1CN(Cc2cc(C(c3ccc4c(nnn4C)c3C)C(C)(C)C(=O)O)ccc2C)Cc2nc3ccccc3cc2O1 (single isomer, unassigned) [Example 37]
inhibition at 0.1 µM [1]: ≥ 50%
Human metabolic rate [2]: A (metabolic rate<100 pmol/min/mg protein)
fold induction at 10 mg/kg (NQO1): > 6

CC[C@@H]1CN(Cc2cc(C(c3ccc4c(nnn4C)c3C)C(C)(C)C(=O)O)ccc2C)Cc2nc3ccccc3cc2O1 (single isomer, unassigned) [Example 38]
Human metabolic rate [2]: E (metabolic rate≥250 pmol/min/mg protein)

CC[C@@H]1CN(Cc2cc(C(c3ccc4c(nnn4C)c3C)C(C)(C)C(=O)O)ccc2C)Cc2cc3cccnc3cc2O1 (single isomer, unassigned) [Example 40]
Human metabolic rate [2]: E (metabolic rate≥250 pmol/min/mg protein)

CC[C@@H]1CN(Cc2cc(C(c3ccc4c(nnn4C)c3C)C(C)(C)C(=O)O)ccc2C)Cc2cc3ncccc3cc2O1 (single isomer, unassigned) [Example 42]
Human metabolic rate [2]: E (metabolic rate≥250 pmol/min/mg protein)

CC[C@@H]1CN(Cc2cc(C(c3ccc4c(nnn4C)c3C)C(C)(C)C(=O)O)ccc2C)Cc2c(ccc3cn[nH]c23)O1 (single isomer, unassigned) [Example 44]
Human metabolic rate [2]: E (metabolic rate≥250 pmol/min/mg protein)

CC[C@@H]1CN(Cc2cc(C(c3ccc4c(nnn4C)c3C)C(C)(C)C(=O)O)ccc2C)Cc2ncc3ccccc3c2O1 (single isomer, unassigned) [Example 46]
Human metabolic rate [2]: E (metabolic rate≥250 pmol/min/mg protein)

Cc1ccc(C(c2ccc3c(nnn3C)c2C)C(C)(C)C(=O)O)cc1CN1Cc2cc3ncccc3cc2OC2(CC2)C1 (single isomer, unassigned) [Example 86, 3-(3-((3′H-spiro[cyclopropane-1,2′-[1,4]oxazepino[7,6-g]quinoline]-4′ (5′H)-yl)methyl)-4-methylphenyl)-3-(1,4-dimethyl-1H-benzo[d][1,2,3]triazol-5-yl)-2,2-dimethylpropanoic Acid]
Human metabolic rate [2]: E (metabolic rate≥250 pmol/min/mg protein)

CC[C@@H]1CN(Cc2cc(C(c3ccc4c(nnn4C)c3C)C3(C(=O)O)CCC3)ccc2C)Cc2cc3ncccc3cc2O1 (single isomer, unassigned) [Example 88]
Human metabolic rate [2]: E (metabolic rate≥250 pmol/min/mg protein)

CC[C@H]1CN(Cc2cc(C(c3ccc4c(nnn4C)c3C)C(C)(C)C(=O)O)ccc2C)Cc2ncc3ccccc3c2O1 (single isomer, unassigned) [Example 90]
Human metabolic rate [2]: C (150≤metabolic rate<200 pmol/min/mg protein)

CC[C@@H]1CN(Cc2cc(C(c3ccc4c(nnn4C)c3C)C(C)(C)C(=O)O)ccc2C)Cc2ccccc2O1 (single isomer, unassigned) [Example C2, reference compound]
Human metabolic rate [2]: E (metabolic rate≥250 pmol/min/mg protein)

CC[C@H]1CN(Cc2cc(C(c3ccc4c(nnn4C)c3C)C(C)(C)C(=O)O)ccc2C)Cc2cc3ncccc3cc2O1 (single isomer, unassigned; diastereomer 1) [Example 57-(c)]
inhibition at 0.1 µM [1]: ≥ 50%
Human metabolic rate [2]: C (150≤metabolic rate<200 pmol/min/mg protein)

CCCC1CN(Cc2cc(C(c3ccc4c(nnn4C)c3C)C(C)(C)C(=O)O)ccc2C)Cc2cc3ncccc3cc2O1 (centres unmarked) [Example 78-(b), 3-(1,4-dimethyl-1H-benzo[d][1,2,3]triazol-5-yl)-2,2-dimethyl-3-(4-methyl-3-((2-propyl-2,3-dihydro-[1,4]oxazepino[7,6-g]quinolin-4 (5H)-yl)methyl)phenyl)propanoic Acid]
Human metabolic rate [2]: B (100≤metabolic rate<150 pmol/min/mg protein)
NQO1 expression induction activity (NQO1; Dose 20 mg/kg, oral, 20 mg/kg): B (3<NQO1 expression induction ratio≤6)
